Converted amounts (≈) assume the structure as drawn. “And” between values parts separate entries of the source, which are not always exact repeats. Identical values can stand only once. Like-named read-outs stand apart in the source and are kept apart here.
Tests used:
MvfR protein (MvfRC87) = target: T1, MvfR protein (MvfRC87) (Pseudomonas aeruginosa, UniProt Q9I4X0); type: binding; conditions: SPR
T1 construct: The MvfRC87 protein purified as in Xiao et. al., 2006; made in house
Method: The selected compounds were tested for their ability to bind to MvfR. Target validation was carried out by using surface plasmon resonance (SPR). The MvfRC87 protein purified as in Xiao et. al., 2006[33] was covalently immobilized on a CM7 Series S sensor chip using an amine coupling reagent kit (GE Healthcare) at the range level of 3000 to 5000 response units (RU). RU was analyzed by Biacore T200 evaluation software 2.0 (GE Healthcare). The relative response units (RUs) 5 seconds before the end of the association were extracted from the double-reference-corrected sensor grams at different concentrations. These responses were plotted against their respective concentrations for MvfR inhibitor alone and in the presence of native MvfR ligand PQS and compared to the calculated responses for the mixture expected for different binding sites.

[1] = tested on: MvfR-regulated small molecules in PA14; experiment: Production of HAQs, 2-AA, DHQ and AA in PA14 cultures (LC-MS); conditions: for % Production 2-AA / % Production DHQ / % Production HHQ / % Production HQNO / % Production PQS / % Production AA: PA14, 50µM inhibitor; for % Production AA: anthranilic acid, precursor control; for activity at 50 µM / inhibition at 50 µM: Pseudomonas aeruginosa
[2] = tested on: pqsA promoter (PA14 PpqsA-GFPASV); experiment: pqsA-GFP reporter expression; type: cell-based, Pseudomonas aeruginosa; conditions: for % Production pqsA-GFP: PA14 PpqsA-GFPASV, 50µM per b210 (method b76 says 10 µM); for activity at 50 µM: PA14, read-out: % Production pqsA-GFP
Method: The expression levels of pqsA, which is representative of the pqsABCDE operon transcription, were monitored in the presence of the MvfR inhibitors using PA14 cells containing the PpqsA-GFPASV, a reporter construct of the pqsA promoter fused to a short half-life GFP gene in, such that quantitative quenching of fluorescence corresponds to pqsA promoter repression[22],[32],[48]. […] GFP fluorescence levels were measured at λex = 485 nm/λem = 535 nm after 10 seconds of shaking every 15 min up to 12 h. The IC50 of PpqsA-GFP expression levels was performed as above using the same 13 different concentrations (0.0122–50 μM) for each of the 13 compounds tested.

[3] = tested on: pyocyanin production in PA14; experiment: Pyocyanin production assay; conditions: for % Production Pyocyanin: PA14, 50µM of each inhibitor (method says 10 μM), vs vehicle; for activity at 50 µM / IC50: Pseudomonas aeruginosa; for activity at 50 µM: PA14, 18 h, read-out: % Production Pyocyanin; for IC50: PA14, read-out: IC50 pyocyanin production
[4] = tested on: mvfR mutant constitutively expressing the pqsABCDE operon; type: cell-based; conditions: Pseudomonas aeruginosa, control about 100, single replicates (Figure 4a)
[5] = tested on: PA14 isogenic mutant ΔmvfR AT/P cells; experiment: AT/P cell formation in ΔmvfR mutant (off-target); conditions: Pseudomonas aeruginosa, PA14, 24 h, read-out: AT/P cell formation, ΔmvfR + compound; PA14 about 100; single replicates (Figure 4b)
Method: Cells were grown in the presence of 10 μg mL^−1 meropenem, with or without 10 µM of the compounds for 24 h. Values were normalized to cells grown for 4 h in the absence of antibiotics and compounds. The ∆mvfR cells grown with antibiotics and vehicles were considered control, and the percentage values were calculated compared to control. c Biofilm formation of mutant ∆mvfR cells with or without compound. […] The number of biological replicates for each compound and strain is depicted in the graph. The error bars denote ±SEM.
The AT/P cell formation assay was performed according to the method previously described in Starkey et al., 2014 (persister cell assay). The over-day culture was incubated at 37 °C with shaking at 200 rpm until the culture OD600nm was 3.0. The culture was then diluted at 1:100 and grown in the same conditions for 4 h. After 4 h, 200 µL were collected, and serial dilutions were plated on LB agar plates for CFU quantification (as normalizers). The remainder of the culture was treated with meropenem to a final concentration of 100 × MIC (Minimum Inhibitory Concentration; 10 mg L^−1) and compounds at a final concentration of 10 µM. After 24 h, culture aliquots were 10-fold serially diluted in LB broth and plated on LB agar for CFU quantification. The AT/P fraction was determined as the normalizers (pre-antibiotic) ratio divided by the AT/P fraction (24 h post-antibiotic)[22].

PA14 AT/P cells = experiment: AT/P cells formation assay in PA14; type: cell-based, Pseudomonas aeruginosa; conditions: for inhibition at 10 µM: Pseudomonas aeruginosa, PA14, 24 h, read-out: inhibition of AT/P cells formation
ΔmvfR biofilm = experiment: Biofilm formation of ΔmvfR mutant (off-target); conditions: Pseudomonas aeruginosa, PA14, 24 h, read-out: Biofilm formation, ΔmvfR + compound; PA14 about 100; single replicates (Figure 4c)
[6] = tested on: 16 MDR P. aeruginosa clinical isolates; experiment: Pyocyanin production in MDR clinical isolates; conditions: Pseudomonas aeruginosa, 18 h, Control about 100, replicates
[7] = Solubility in iPBS pH 7.4 by HPLC; type: physicochemical; conditions: kinetic from dmso stock
Method: Solubility of the 10 mM compounds dissolved in DMSO was tested in the isotonic phosphate buffer (iPBS) at pH 7.4 using High-Performance Liquid Chromatography (HPLC). For the preparation of iPBS phosphate-buffered saline tab (Sigma-Aldrich 08057-12Tab-F) is dissolved in 500 mL of deionized water and the final composition of the solution contains 10 mM PBS, 2.7 mM KCl, 140 mM NaCl and 0.05% Tween. A total 10 µL of the compound from a 10 mM stock solution in DMSO was added to the vial, and 190 µL of buffer was added to each vial and mixed with shaking at room temperature for 4 h. Thereafter the samples were filtered, and 160 µL of the sample was mixed with 40 µL of DMSO for the final injection. Ibuprofen (high solubility) and Progesterone (low Solubility) were used as standard compounds. Ammonium Acetate aqueous solution (50 mM, pH 7.4) and the acetonitrile were used as mobile phases A and B, respectively. The measurement of concentration was achieved by comparing of UV absorbance of the sample solution and the known standard solution following an HPLC separation using a generic fast gradient method. The solubility of each compound is expressed by the ratio of compound amount in the sample test solution to the amount of compound in the standard solution.

PA14 biofilm = experiment: Biofilm formation in 96-well plates, PA14; type: cell-based, Pseudomonas aeruginosa; conditions: PA14, 10 µM, 24 h
[8] = target: MvfR binding to the pqsA promoter (Pseudomonas aeruginosa, UniProt Q9I4X0); type: cell-based; conditions: D88 −, PQS +; Figure 5c; replicates
[9] = read-out: DHQ, ΔmvfR-pqsABCD strain
[10] = read-out: HQNO, ΔmvfR-pqsABCD strain
[11] = read-out: PQS, ΔmvfR-pqsABCD strain
[12] = read-out: Pyocyanin production relative to Control, clinical isolate LGR-4325
[13] = read-out: Pyocyanin production relative to Control, clinical isolate LGR-4326
[14] = read-out: Pyocyanin production relative to Control, clinical isolate LGR-4327
[15] = read-out: Pyocyanin production relative to Control, clinical isolate LGR-4328
[16] = read-out: Pyocyanin production relative to Control, clinical isolate LGR-4330
[17] = read-out: Pyocyanin production relative to Control, clinical isolate LGR-4331 (first section, r117)
[18] = read-out: Pyocyanin production relative to Control, clinical isolate LGR-4331 (second section, r140)
[19] = read-out: Pyocyanin production relative to Control, clinical isolate LGR-4333
[20] = read-out: Pyocyanin production relative to Control, clinical isolate LGR-4343
[21] = read-out: Pyocyanin production relative to Control, clinical isolate LGR-4344
[22] = read-out: Pyocyanin production relative to Control, clinical isolate LGR-4348
[23] = read-out: Pyocyanin production relative to Control, clinical isolate LGR-4356
[24] = read-out: Pyocyanin production relative to Control, clinical isolate LGR-4362
[25] = read-out: Pyocyanin production relative to Control, clinical isolate LGR-4363
[26] = read-out: Pyocyanin production relative to Control, clinical isolate LGR-4364 (first section, r326)
[27] = read-out: Pyocyanin production relative to Control, clinical isolate LGR-4364 (second section, r349)

T1 sequence (Q9I4X0 87-332): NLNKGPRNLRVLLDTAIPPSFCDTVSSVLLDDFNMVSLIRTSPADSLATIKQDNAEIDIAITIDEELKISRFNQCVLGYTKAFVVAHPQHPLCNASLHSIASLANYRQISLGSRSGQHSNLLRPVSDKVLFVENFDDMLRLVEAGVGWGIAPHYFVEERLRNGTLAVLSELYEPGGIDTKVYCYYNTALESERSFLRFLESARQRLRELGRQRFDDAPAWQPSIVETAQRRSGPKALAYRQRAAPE
Chain of MvfR binding to the pqsA promoter (Q9I4X0 whole entry, looked up): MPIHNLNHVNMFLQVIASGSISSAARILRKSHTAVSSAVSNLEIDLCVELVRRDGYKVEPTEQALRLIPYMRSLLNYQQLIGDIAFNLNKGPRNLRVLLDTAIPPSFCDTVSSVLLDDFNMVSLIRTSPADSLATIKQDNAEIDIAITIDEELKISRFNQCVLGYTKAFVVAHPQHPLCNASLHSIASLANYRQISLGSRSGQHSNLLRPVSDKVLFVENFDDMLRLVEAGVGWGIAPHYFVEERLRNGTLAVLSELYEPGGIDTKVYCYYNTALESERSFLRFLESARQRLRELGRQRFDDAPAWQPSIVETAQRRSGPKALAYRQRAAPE

N#Cc1ccc(NC(=O)CC(=O)Nc2cccc(Cl)c2)cc1 [D71]
Response Unit (RU) (MvfR protein (MvfRC87); Concentration 1.00E-05 M): 31.7 RU | Response Unit (RU) (MvfR protein (MvfRC87); Concentration 1.00E-06 M): 19.5 RU | Response Unit (RU) (MvfR protein (MvfRC87); Concentration 1.00E-07 M): 5.9 RU | Response Unit (RU) (MvfR protein (MvfRC87); Concentration 1.00E-08 M): 2.4 RU | Response Unit (RU) (MvfR protein (MvfRC87); Concentration 3.16E-06 M): 26.8 RU | Response Unit (RU) (MvfR protein (MvfRC87); Concentration 3.16E-07 M): 11.4 RU | Response Unit (RU) (MvfR protein (MvfRC87); Concentration 3.16E-08 M): 3.1 RU | % Production 2-AA [1]: 57% | % Production DHQ [1]: 92% | % Production HHQ [1]: 106% | % Production HQNO [1]: 127% | % Production PQS [1]: 105% | % Production AA [1]: 207% | % Production pqsA-GFP [2]: 10% | % Production Pyocyanin [3]: 13%

N#Cc1ccc(NC(=O)CC(=O)Nc2ccc(C#N)c(Cl)c2)cc1 [D95]
activity at 50 µM ([1]; PA14, read-out: % Production 2-AA): 11% | activity at 50 µM ([1]; PA14, read-out: % Production AA): 774% | activity at 50 µM ([1]; PA14, read-out: % Production DHQ): 13% | activity at 50 µM ([1]; PA14, read-out: % Production HHQ): 5% | activity at 50 µM ([1]; PA14, read-out: % Production HQNO): 30% | activity at 50 µM ([1]; PA14, read-out: % Production PQS): 10% | inhibition at 50 µM ([1]; PA14, read-out: HHQ production inhibition): 89 to 99% | inhibition at 50 µM ([1]; PA14, read-out: HQNO production inhibition): 40 to 92% | inhibition at 50 µM ([1]; PA14, read-out: PQS production inhibition): 76 to 97% | inhibition at 50 µM ([1]; PA14, read-out: inhibition of 2-AA production): 82 to 95% | inhibition at 50 µM ([1]; PA14, read-out: inhibition of DHQ production): 82 to 96% | activity at 50 µM [4, 9]: 95.2% | activity at 50 µM [4, 10]: 97.2% | activity at 50 µM [4, 11]: 100% | activity at 10 µM [5]: 35.3% | activity at 50 µM ([2]; Pseudomonas aeruginosa): 6% | IC50 ([2]; Pseudomonas aeruginosa, PA14, read-out: IC50 pqsA-GFP expression, PA14, 13 concentrations): 1090 nM | inhibition at 10 µM (PA14 AT/P cells): ≥ 51% | activity at 50 µM [3]: 4% | IC50 [3]: 900 nM | activity at 10 µM (ΔmvfR biofilm): 17.7% | activity at 10 µM [6, 12]: 11.5% | activity at 10 µM [6, 13]: 6.63% | activity at 10 µM [6, 14]: 14.1% | activity at 10 µM [6, 15]: 16.3% | activity at 10 µM [6, 16]: 19.6% | activity at 10 µM [6, 17]: 14.8% | activity at 10 µM [6, 18]: 7.46% | activity at 10 µM [6, 19]: 9.75% | activity at 10 µM [6, 20]: 12.1% | activity at 10 µM [6, 21]: 14.6% | activity at 10 µM [6, 22]: 19.2% | activity at 10 µM [6, 23]: 7.92% | activity at 10 µM [6, 24]: 30.4% | activity at 10 µM [6, 25]: 9.55% | activity at 10 µM [6, 26]: 8.11% | activity at 10 µM [6, 27]: 13.7% | solubility at 4 h ([7]; pH 7.4, aqueous with cosolvent or surfactant or cyclodextrin): 1.7e-05 M (≈ 5.76 µg/mL)

O=C(Nc1ccc(Oc2ccccc2)cc1)C(F)C(=O)Nc1ccc(C(F)(F)F)cc1 (stereo not drawn) [D100]
biofilm formation inhibition rate (PA14 biofilm): highest inhibition | activity at 50 µM ([4]; read-out: 2-AA, ΔmvfR-pqsABCD strain): 97.5% | activity at 50 µM [4, 9]: 92.5% | activity at 50 µM ([4]; read-out: HHQ, ΔmvfR-pqsABCD strain): 104% | activity at 50 µM [4, 10]: 98.7% | activity at 50 µM [4, 11]: 81.3% | activity at 10 µM [5]: 42.2% | activity at 50 µM ([2]; Pseudomonas aeruginosa): 2% | AT/P cells formation, percentage of control (single replicates) (PA14 AT/P cells; PA14, 10 μg mL^−1 meropenem, 10 µM compound, 24 h, control PA14 + vehicle): 18.86% and 47.86% and 24.02% | inhibition at 10 µM (PA14 AT/P cells): ≥ 51% | activity at 50 µM [3]: 7% | IC50 [3]: 380 nM | activity at 10 µM (ΔmvfR biofilm): 39.3% | activity at 10 µM [6, 12]: 13.3% | activity at 10 µM [6, 13]: 19.1% | activity at 10 µM [6, 14]: 21.7% | activity at 10 µM [6, 15]: 31.1% | activity at 10 µM [6, 16]: 31.1% | activity at 10 µM [6, 17]: 23.5% | activity at 10 µM [6, 18]: 12% | activity at 10 µM [6, 19]: 15.4% | activity at 10 µM [6, 20]: 13.4% | activity at 10 µM [6, 21]: 16.3% | activity at 10 µM [6, 22]: 26.1% | activity at 10 µM [6, 23]: 16.4% | activity at 10 µM [6, 24]: 33% | activity at 10 µM [6, 25]: 10.2% | activity at 10 µM [6, 26]: 13.3% | activity at 10 µM [6, 27]: 10.6% | solubility at 4 h ([7]; isotonic phosphate buffer (iPBS), aqueous with cosolvent or surfactant or cyclodextrin, iPBS pH 7.4, HPLC, read-out: Solubility (M) in PBS): 5e-06 M (≈ 2.16 µg/mL)

Cc1cc(F)ccc1NCC(=O)Nc1ccc(C#N)cc1 [M17]
Response Unit (RU) (MvfR protein (MvfRC87); Concentration 1.00E-05 M): 18.8 RU | Response Unit (RU) (MvfR protein (MvfRC87); Concentration 1.00E-06 M): 6.7 RU | Response Unit (RU) (MvfR protein (MvfRC87); Concentration 1.00E-07 M): 1.3 RU | Response Unit (RU) (MvfR protein (MvfRC87); Concentration 1.00E-08 M): 0.7 RU | Response Unit (RU) (MvfR protein (MvfRC87); Concentration 3.16E-06 M): 12.6 RU | Response Unit (RU) (MvfR protein (MvfRC87); Concentration 3.16E-07 M): 3 RU | Response Unit (RU) (MvfR protein (MvfRC87); Concentration 3.16E-08 M): 0.7 RU | % Production 2-AA [1]: 101% | % Production DHQ [1]: 135% | % Production HHQ [1]: 3% | % Production HQNO [1]: 17% | % Production PQS [1]: 11% | % Production AA [1]: 100% | % Production pqsA-GFP [2]: 32% | % Production Pyocyanin [3]: 67%

CCCCCCCc1nc2ccccc2c(O)c1O [PQS]
MvfR binding to the pqsA promoter (ChIP-qPCR) [8]: 12.2267 and 11.783 and 5.7525

From article PMC9428149, “Tackling recalcitrant Pseudomonas aeruginosa infections in critical illness via anti-virulence monotherapy” (Nature Communications, 2022)
